Reference: patent US11634404B2 (priority 2016, dated 2023)

Columns and labels:
Assay type in all cases: cell-based
D3 DAR = D3 DAR (Homo sapiens (Human), UniProt P35462); conditions: β-arrestin recruitment, agonist; for D3 Emax: 'curve' = wrapped cell 'curve interrupted'
D2 DAR [1] = target: T1, D2 DAR (Homo sapiens (Human), UniProt P14416); conditions: β-arrestin recruitment, agonist; for D2 Emax: 'curve' = wrapped cell 'curve interrupted'
D2 DAR [2] = target: T1, D2 DAR; conditions: β-arrestin recruitment, antagonist; for D2 Imax: 'curve' = wrapped cell 'curve interrupted'

D3 DAR, sequence (P35462 whole entry): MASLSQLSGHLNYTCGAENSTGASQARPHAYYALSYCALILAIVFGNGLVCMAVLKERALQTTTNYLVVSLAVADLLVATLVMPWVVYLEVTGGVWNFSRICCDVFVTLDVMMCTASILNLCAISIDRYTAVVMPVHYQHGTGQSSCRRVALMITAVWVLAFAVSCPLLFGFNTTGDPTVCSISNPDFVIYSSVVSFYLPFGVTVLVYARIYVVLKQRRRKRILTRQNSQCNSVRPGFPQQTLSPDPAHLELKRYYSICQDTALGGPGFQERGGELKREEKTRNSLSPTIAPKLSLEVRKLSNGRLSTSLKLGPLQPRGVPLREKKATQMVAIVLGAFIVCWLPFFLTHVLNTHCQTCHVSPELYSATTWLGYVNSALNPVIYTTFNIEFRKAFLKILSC
T1 sequence (P14416 whole entry): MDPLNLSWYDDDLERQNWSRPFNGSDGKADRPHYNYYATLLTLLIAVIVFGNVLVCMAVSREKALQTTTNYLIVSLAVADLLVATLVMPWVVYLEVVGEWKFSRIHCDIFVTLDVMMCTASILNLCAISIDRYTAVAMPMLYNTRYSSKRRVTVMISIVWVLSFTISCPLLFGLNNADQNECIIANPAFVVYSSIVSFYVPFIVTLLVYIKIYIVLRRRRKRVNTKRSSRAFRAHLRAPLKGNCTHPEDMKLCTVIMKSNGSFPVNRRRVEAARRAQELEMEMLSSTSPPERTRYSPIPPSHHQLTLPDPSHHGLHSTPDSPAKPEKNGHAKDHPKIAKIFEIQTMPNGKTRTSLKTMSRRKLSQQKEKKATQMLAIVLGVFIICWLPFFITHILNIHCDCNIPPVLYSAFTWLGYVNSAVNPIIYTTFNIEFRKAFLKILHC

| SMILES | EC50 (D3 DAR) [nM] | EC50 (D2 DAR [1]) [nM] | D2 IC50 (D2 DAR [2]) | other results |
| --- | --- | --- | --- | --- |
| COc1ccc(C(=O)N2CCN(CCOc3ccc4c(c3)OCO4)CC2)cc1 [Compound 39] | 310 | – | – | D2 EC50 (D2 DAR [1]): none; D2 Emax (D2 DAR [1]): none; IC50 (D2 DAR [2]): > 10000 nM; D2 Imax (D2 DAR [2]): 87 |
| COc1ccc(OCCN2CCN(C(=O)c3cc4cccc(OC)c4[nH]3)CC2)cc1 [Compound 45] | 980 | 6000 | – | IC50 (D2 DAR [2]): > 100000 nM |
| COc1ccc(OCCN2CCN(C(=O)c3cc4cc(Cl)ccc4[nH]3)CC2)cc1 [Compound 53] | – | – | none | D2 EC50 (D2 DAR [1]): none; D2 Emax (D2 DAR [1]): none |
| O=C(c1cc2ccccc2o1)N1CCN(CCOc2cccnc2)CC1 [Compound 10] | 42 | 1700 | None | – |
| COc1ccc(OCCN2CCN(C(=O)c3ccc4[nH]ccc4c3)CC2)cc1 [Compound 31] | – | 2500 | – | – |
| COc1ccc(OCCC2CCN(C(=O)c3cc4ccccc4[nH]3)CC2)cc1 [Compound 124] | – | – | none | D3 EC50 (D3 DAR): none; D3 Emax (D3 DAR): none; D2 EC50 (D2 DAR [1]): none; D2 Emax (D2 DAR [1]): none |
| O=C(c1cc2ccccc2[nH]1)N1CCN(CCOc2ccc3cc[nH]c3c2)CC1 [Compound 109] | 60.9 | – | – | D2 EC50 (D2 DAR [1]): none; D2 Emax (D2 DAR [1]): none; IC50 (D2 DAR [2]): 440 nM; D2 Imax (D2 DAR [2]): 100 |
| COc1cccc(OCCN2CCN(C(=O)c3cc4cccnc4[nH]3)CC2)c1 [Compound 11] | 50 | 128 | None | – |
| O=C(c1n[nH]c2ccccc12)N1CCN(CCOc2cccnc2)CC1 [Compound 7] | – | 4100 | None | – |
| Cc1ccc(OCCN2CCN(C(=O)c3cc4ccccc4[nH]3)CC2)cc1 [Compound 97] | 151 | > 50000 | – | D2 Emax (D2 DAR [1]): curve; IC50 (D2 DAR [2]): > 100000 nM |
| O=C(c1cc2ccccc2[nH]1)N1CCN(CCOc2ccc3[nH]ccc3c2)CC1 [Compound 16] | 60.9 | – | – | – |
| COc1cccc(OCCN2CCN(C(=O)c3cc4cc(OC)ccc4[nH]3)CC2)c1 [Compound 67] | 284 | 1700 | None | – |
| COc1ccc(OCCN2CCN(CC(=O)c3cc4ccccc4[nH]3)CC2)cc1 [Compound 125] | – | – | none | D3 EC50 (D3 DAR): none; D3 Emax (D3 DAR): none; D2 EC50 (D2 DAR [1]): none; D2 Emax (D2 DAR [1]): none |
| COc1ccc(OCCN2CCN(C(=O)c3ccncc3)CC2)cc1 [Compound 43] | 22000 | – | none | D2 EC50 (D2 DAR [1]): none; D2 Emax (D2 DAR [1]): none |
| COc1ccc(OCCN2CCN(C(=O)c3cc4cc(OC)ccc4[nH]3)CC2)cc1 [Compound 46] | 520 | 7800 | – | IC50 (D2 DAR [2]): > 100000 nM |
| CC(CN1CCN(C(=O)c2cc3ccccc3[nH]2)CC1)Oc1ccc(Cl)cc1 (centres unmarked) [Compound 121] | 32 | – | – | – |
| Cn1c(C(=O)N2CCN(CCOc3cccnc3)CC2)cc2ccccc21 [Compound 81] | 37.6 | 6200 | none | – |
| COc1ccc(OCCN2CCN(C(=O)c3cc4ccncc4[nH]3)CC2)cc1 [Compound 57] | 810 | 7800 | – | IC50 (D2 DAR [2]): > 100000 nM |
| COc1ccc(OC(C)CN2CCN(C(=O)c3cc4ccccc4[nH]3)CC2)cc1 (centres unmarked) [Compound 120] | 82 | – | – | – |
| COc1ccc(OCCN2CCN(S(=O)(=O)c3ccc(OC)cc3)CC2)cc1 [Compound 116] | – | > 100000 | none | D3 EC50 (D3 DAR): none; D3 Emax (D3 DAR): none; D2 Emax (D2 DAR [1]): curve |
| O=C(c1cc2ccncc2[nH]1)N1CCN(CCOc2cccnc2)CC1 [Compound 8] | 81 | – | – | – |
| COc1ccc(OCCCN2CCN(C(=O)c3cc4ccccc4[nH]3)CC2)cc1 [Compound 122] | – | – | – | D3 EC50 (D3 DAR): none; D3 Emax (D3 DAR): none |

| SMILES | EC50 (D3 DAR) [nM] | EC50 (D2 DAR [1]) [nM] | D2 IC50 (D2 DAR [2]) | other results |
| --- | --- | --- | --- | --- |
| O=C(c1cc2cccc(Cl)c2[nH]1)N1CCN(CCOc2cccnc2)CC1 [Compound 77] | – | 617 | none | – |
| O=C(c1cc2ccccc2[nH]1)N1CCN(CCOc2cncc(Cl)c2)CC1 [Compound 13] | 5 | 790 | None | – |
| COc1ccc(OCCC2CCN(C(=O)c3ccc(OC)cc3)CC2)cc1 [Compound 117] | – | – | none | D3 EC50 (D3 DAR): none; D3 Emax (D3 DAR): none; D2 EC50 (D2 DAR [1]): none; D2 Emax (D2 DAR [1]): none |
| COc1ccc2cc(C(=O)N3CCN(CCOc4cccnc4)CC3)[nH]c2c1 [Compound 23] | 6.4 | – | – | – |
| Cc1cccc2[nH]c(C(=O)N3CCN(CCOc4cccnc4)CC3)cc12 [Compound 24] | – | 180 | None | – |
| O=C(c1cc2ccccc2[nH]1)N1CCN(CCOc2cccnc2)CC1 [Compound 106] | – | – | none | – |
| COc1ccc(OCCCN2CCN(C(=O)c3ccc(Cl)cc3)CC2)cc1 [Compound 115] | – | – | – | D3 EC50 (D3 DAR): none; D3 Emax (D3 DAR): none |
| COc1ccc(C(=O)N2CCN(CCOc3ccccc3OC)CC2)cc1 [Compound 34] | 278 | – | – | – |
| O=C(c1cc2c(Cl)cccc2[nH]1)N1CCN(CCOc2cccnc2)CC1 [Compound 80] | – | 217 | none | – |
| COc1ccc(OCCN2CCN(C(=O)c3cc4ncccc4[nH]3)CC2)cc1 [Compound 59] | – | > 100000 | none | D2 Emax (D2 DAR [1]): curve |
| O=C(c1cc2cccc(Cl)c2[nH]1)N1CCN(CCOc2cccnc2)CC1 [Compound 21] | – | 617 | None | – |
| COc1ccc(OCCN2CCN(C(=O)c3cc4c(C)cccc4[nH]3)CC2)cc1 [Compound 30] | 266 | – | – | – |
| Cc1cccc2cc(C(=O)N3CCN(CCOc4cccnc4)CC3)[nH]c12 [Compound 26] | 25.7 | – | – | – |
| O=C(c1cc2ccc(Cl)cc2[nH]1)N1CCN(CCOc2cccnc2)CC1 [Compound 17] | – | 183 | None | – |
| O=C(c1cc2ccccc2[nH]1)N1CCN(CCOc2ccc(Br)cc2)CC1 [Compound 102] | – | – | – | D2 EC50 (D2 DAR [1]): none; D2 Emax (D2 DAR [1]): none; IC50 (D2 DAR [2]): > 100000 nM |
| COc1cccc(OCCN2CCN(C(=O)c3cc4ccccc4[nH]3)CC2)c1 [Compound 94] | 33.8 | – | – | – |
| Cc1cccc2[nH]c(C(=O)N3CCN(CCOc4cccnc4)CC3)cc12 [Compound 76] | – | 180 | none | – |
| COc1cccc(OCCN2CCN(C(=O)c3nc4ccccc4[nH]3)CC2)c1 [Compound 9] | 285 | – | – | – |
| CCc1ccc(OCCN2CCN(C(=O)c3cc4ccccc4[nH]3)CC2)cc1 [Compound 98] | – | – | – | D2 EC50 (D2 DAR [1]): none; D2 Emax (D2 DAR [1]): none; IC50 (D2 DAR [2]): > 50000 nM |
| COc1ccc(CCCN2CCN(C(=O)c3ccc(OC)cc3)CC2)cc1 [Compound 113] | – | – | – | D3 EC50 (D3 DAR): none; D3 Emax (D3 DAR): none |
| O=C(c1cc2ccccc2s1)N1CCN(CCOc2cccnc2)CC1 [Compound 6] | 13.3 | – | – | – |
| COc1ccc2cc(C(=O)N3CCN(CCOc4cccnc4)CC3)[nH]c2c1 [Compound 71] | 6.4 | – | – | – |

| SMILES | EC50 (D3 DAR) [nM] | EC50 (D2 DAR [1]) [nM] | D2 IC50 (D2 DAR [2]) | other results |
| --- | --- | --- | --- | --- |
| COc1ccc2[nH]c(C(=O)N3CCN(CCOc4cccnc4)CC3)cc2c1 [Compound 28] | – | 2600 | None | – |
| COc1ccc(OCCCCN2CCN(C(=O)c3cc4ccccc4[nH]3)CC2)cc1 [Compound 123] | – | – | – | D3 EC50 (D3 DAR): none; D3 Emax (D3 DAR): none |
| O=C(c1cc2c(Cl)cccc2[nH]1)N1CCN(CCOc2cccnc2)CC1 [Compound 18] | – | 217 | None | – |
| O=C(c1cc2cccnc2[nH]1)N1CCN(CCOc2cccnc2)CC1 [Compound 4, (4-(2-(pyridin-3-yloxy)ethyl)piperazin-1-yl)(1H-pyrrolo[2,3-b]pyridin-2-yl)methanone] | 13.5 | – | – | – |
| COc1ccc(OCCN2CCN(C(=O)c3cc4ccccc4s3)CC2)cc1 [Compound 61] | 3300 | – | – | – |
| COc1ccc(OCCN(C)CCN(C)C(=O)c2ccc(OC)cc2)cc1 [Compound 118] | – | – | – | D3 EC50 (D3 DAR): none; D3 Emax (D3 DAR): none |
| O=C(c1cc2cccnc2[nH]1)N1CCN(CCOc2cccnc2)CC1 [Compound 83] | 13.5 | – | – | – |
| COc1cccc(OCCN2CCN(C(=O)c3cc4ccccc4[nH]3)CC2)c1 [Compound 92] | – | – | – | D3 EC50 (D3 DAR): none; D3 Emax (D3 DAR): none |
| COc1ccc2[nH]c(C(=O)N3CCN(CCOc4cccnc4)CC3)cc2c1 [Compound 72] | – | 2600 | none | – |
| O=C(c1cc2ccc(Cl)cc2[nH]1)N1CCN(CCOc2cccnc2)CC1 [Compound 78] | – | 183 | none | – |
| O=C(c1cc2cc(Cl)ccc2[nH]1)N1CCN(CCOc2cccnc2)CC1 [Compound 79] | – | 1400 | none | – |
| COc1ccc(OCCN2CCN(C(=O)c3cc4ccccc4o3)CC2)cc1 [Compound 62] | – | – | – | D2 EC50 (D2 DAR [1]): none; D2 Emax (D2 DAR [1]): none; IC50 (D2 DAR [2]): 7700 nM; D2 Imax (D2 DAR [2]): 100 |
| O=C(c1nc2ccccc2[nH]1)N1CCN(CCOc2cccnc2)CC1 [Compound 5] | – | 2400 | None | – |
| COc1ccc(C(=O)N2CCN(CCOc3ccc4c(c3)OCO4)CC2)cc1 [Compound 66] | – | 7400 | None | – |
| Cc1cccc2cc(C(=O)N3CCN(CCOc4cccnc4)CC3)[nH]c12 [Compound 73] | 25.7 | – | – | – |
| COc1cccc(OCCN2CCN(C(=O)c3cc4ccccc4[nH]3)CC2)c1 [Compound 14] | 33.8 | – | – | – |
| COc1ccc(OCCN2CCN(C(=O)c3cc4cccnc4[nH]3)CC2)cc1 [Compound 56] | 167 | – | – | – |
| COc1ccc(OCCCN2CCN(C(=O)c3ccc(OC)cc3)CC2)cc1 [Compound 112] | – | – | – | D3 EC50 (D3 DAR): none; D3 Emax (D3 DAR): none |
| O=C(c1cc2cc(Cl)ccc2[nH]1)N1CCN(CCOc2cccnc2)CC1 [Compound 19] | – | 1400 | None | – |
| O=C(c1cc2ccccc2[nH]1)N1CCN(CCOc2ccc([N+](=O)[O-])cc2)CC1 [Compound 103] | – | – | none | D2 EC50 (D2 DAR [1]): none; D2 Emax (D2 DAR [1]): none |
| COc1ccc(OCCN2CCN(C(=O)c3cc4ccc(Cl)cc4[nH]3)CC2)cc1 [Compound 52] | 225 | – | – | – |
